Measured values: patent publication US12097190B2, “Therapeutic use of levorotatory β-lactams in hematopoiesis, immuno-oncology therapy, and regulation of lipoprotein and apolipoprotein levels” (Alpha-1 Biologics, LLC, priority 2017, dated 2024)

Key:
[1] = tested on: T lymphocytes; test: Effect on T cell numbers in C57BL6 mice, flow cytometry; format: in vivo, mouse; conditions: 5 mg/kg oral gavage, 2 weeks of treatment, change from baseline
Method: Compounds were delivered by oral gavage 5 days per week. Blood was collected weekly for detection of CD3e, CD4, and CD8a T cells by flow cytometry using the mouse T lymphocyte subset antibody cocktail with isotype control (BD Biosciences). The study was performed at the Division of Laboratory Animal Research, Stony Brook University, Stony Brook, N.Y. Staining and statistical analysis was performed by Alpha-1 Biologics, and the samples were acquired by the Flow Cytometry Laboratory, Stony Brook Hospital, using a BD LSRFortessa instrument. […] Data were normally distributed and compared using Student's T-test. Mean % Change in CD3+ T cells for vehicle was −11% and for CD4+CD8+ progenitors was −13%. […] Average percent change from baseline is represented in FIGS. 6A and 6B where % change=100×[(Treatment Mean-Baseline)/Baseline].

[2] = tested on: LDL; test: Diet-induced obesity (DIO) mouse model, serum LDL levels; format: in vivo; conditions: week 6, normalized to vehicle
Method: The well-known Jackson Laboratory (Bar Harbor, Me.) C57BL/6 Diet-Induced Obesity (DIO) mouse model represents human metabolic syndrome and elevated LDL levels. Mice are fed a high fat diet (60% fat) or normal diet (10% fat) for various periods of time and lipoprotein levels were measured. […] In accordance with a protocol used in a recently conducted human clinical trial (NCT01731691), mouse peripheral blood was collected into blood collection tubes, and serum was analyzed for lipoprotein levels using Beckman Coulter AU680 Chemistry System. In addition, cells were analyzed by flow cytometry to quantitate lymphocyte subsets including CD3, CD4, and CD8. As compared to baseline levels (before treatment), lipoprotein levels (including, but not limited to total cholesterol, HDL, LDL, apoA, apoB, apoC, apoE) and blood cells expressing the above mentioned cellular markers were quantitated to determine changes due to treatment. Diet-induced obesity mice (DIO, Jackson Laboratory) were fed a 60% fat diet for 17 weeks. […] Because mice were maintained on the DIO diet throughout the study, body weight and LDL levels increased in the vehicle control (Group 1). To compare the effectiveness of compounds, mean values within each treatment group were normalized by forming a ratio to mean values of vehicle, and the ratio was expressed as normalized % change using to the formula: 100−(Treatment mean/Vehicle mean*100).

[3] = tested on: E. coli DH5-Alpha; test: Kirby-Bauer Disk Test, zones of inhibition; format: cell-based
Method: […] At this concentration of cells, bacteria were spread on Mueller-Hinton agar plates. […] After incubation for 16 hours at 37° C., plates were examined for zones of inhibition.

[4] = tested on: U937 Clone 10 cells; test: Receptor polarization, cell migration and SHIV endocytosis in preconditioned cells; format: cell-based, human
Method: The procedures for inducing receptor polarization have been described (Bristow et al., 2003).
To examine receptor polarization, microscope slides are prepared by adding serial dilutions of a β-lactams. Cells are added to the microscope slides and incubated for 30 minutes in humidified 5% CO2 at 37° C. Unattached cells are removed by washing, and attached cells are fixed by application of 4% paraformaldehyde after which attached cells are counted by light microscopy and photographed using confocal microscopy
Receptor Polarization: U937 Clone 10 cells were cultured overnight in AIM-V serum-free medium. Cells were pelleted, re-suspended in AIM-V at 2×10^6/ml, and 250 μl (5×10^5 cells) was added to Eppendorf tubes pre-coated to prevent attachment.
Binding and Endocytosis: AT 2 chemically inactivated SHIV preparations, consisting of non-infectious virus with conformationally and functionally intact envelope glycoproteins, were provided by the AIDS Vaccine Program (SAIC Frederick, Frederick, Md.). Cells were pulsed with virus (30 ng p27 or p24 per 10^6 cells) for 2 hr. at 2° C. which allows binding, but prevents endocytosis. Alternatively, cells were pulsed with virus for 2 hr. at 37° C. which allows binding and endocytosis. Following pulsing for 2 hr., cells were mounted on Alcian blue slides for microscopy. The presence of inactivated virus in test cells was detected using dodecameric human CD4+-IgG1 provided by the Laboratory of Immunoregulation, NIAID, NIH. This reagent specifically recognizes conformationally intact HIV 1/SIV envelope gp120. CD4-IgG1 was detected using HRP-conjugated Rb anti-human IgG (Sigma). CD4+ IgG-labeled cells were coupled to Oregon 488 fluorochrome using the tyramide signal amplification system (Life Science Products, Boston, Mass., USA). […] Cells were analyzed using 2 μm scanning from 3B.

[5] = tested on: elastase; conditions: inhibition of elastase activity as described in the package insert; cited from earlier work
[6] = tested on: HIV non-permissive (minus) clone 17; test: Adherence assay on coverslips, U937 minus clone 17; format: cell-based, human
Method: (§1) To coverslips prepared with chemoattractants as described above, 10^6 cells in 90 μl HBSS were mixed to uniformity, and incubated for 30 min in humidified 5% CO2 at 37° C. without dehydration. To detect interacting effects of stimulants, cells were delivered in an 80 μl volume to coverslips previously prepared with 10 μl of one stimulant, mixed to uniformity, and incubated for 15 min at 37° C. Subsequently, an additional stimulant was delivered in a 10 μl volume to each coverslip, mixed with pre-incubated cells to uniformity, and incubated for 30-60 min at 37° C. […] Slides were examined by epi-illumination UV microscopy on a Zeiss Axioskop Means and standard deviations were determined by counting adherent cells in at least three fields/coverslip.
(§2) Means and standard deviations represent the difference between stimulated and unstimulated adherence. […] Adherence was optimized for each chemoattractant and adherence induced by each chemoattractant was enumerated in more than three separate experiments.

[7] = tested on: HIV permissive (plus) clone 10; test: Adherence assay on coverslips, U937 plus clone 10; format: cell-based, human
Method: as §1, §2

[8] = tested on: transplanted human stem cells, transplanted AML cells; conditions: mouse model; cited from earlier work
[9] = tested on: CD4+ T lymphocytes; conditions: cited from earlier work
[10] = tested on: Human acute myeloid leukemia cells (AML); conditions: cited from earlier work

CC1(C)SC2C(NC(=O)C(N)c3ccccc3)C(=O)N2C1C(=O)O [L-Ampicillin, (2S,5R,6R)-6-((S)-2-amino-2 phenylacetamcido)-3,3-dimethyl-7-oxo-4-thia-1-azabicyclo[3.2.0] heptane-2-acid]
Mean % Change in CD3+ T cells [1]: +16% | Mean % Change in CD4+CD8+ progenitors [1]: +38% | normalized mean % change in LDL ([2]; 5 mg/kg oral gavage 5 days per week): −41.0±20.5% | normalized mean % change in LDL ([2]; 50 mg/kg oral gavage 5 days per week): 3.7% | activity in the Kirby-Bauer Disk Test ([3]; 0.5 mM): ineffective as an antibiotic | zone of inhibition at 5000 µM ([3]; Escherichia coli, DH5ALPHA, 5 mM, 10 μl per disk, 16 hours at 37° C., read-out: diameter of zone of inhibition): 14 mm | cell motility (morphology by confocal microscopy) [4]: exhibited the morphology of cells undergoing cell motility | receptor polarization [4]: induces receptor polarization | cell migration and endocytosis (SHIV) ([4]; FIGS. 3A and 3B): stimulation of cell migration and endocytosis

PROLASTIN-C®: human α1PI, cryoprecipitate preparation isolated from human plasma (Grifols)
specific activity [5]: 70%

Ser-Phe-Leu-Leu-Arg-Asn [SFLLRN]
stimulation of adherence [6]: Neither subclone was influenced | stimulation of adherence [7]: Neither subclone was influenced

α1PI: abundant proteinase inhibitor alpha-1 proteinase inhibitor (α1PI, α1 antitrypsin)
homing of stem cells to and egress of AML cells from bone marrow [8]: inhibited homing of transplanted human stem cells to bone marrow and egress of transplanted AML cells from bone marrow | CD4+ counts ([9]; HIV-1-infected patients with acquired and uninfected patients with inherited α1PI deficiency): caused an increase in CD4+ counts | LDL in subjects ([9]; α1PI treatment): produced decreased LDL | SDF-1-induced pseudopodia formation ([10]; AML cells): prevented | SDF-1 dependent migration ([10]; pre-incubation of AML cells): significantly reduced
